# According to patent publication US9708314B2, “Heterocyclic amide compound” (NISSAN CHEMICAL INDUSTRIES, LTD., priority 2013, dated 2017):
# Columns and labels:
# Format in all cases: in vivo
# Glycine max = experiment: Test Example 4: effect on crop by application to foliage (diluvial soil, plastic box); details: foliage application, 320 g/ha
# Method in brief: (§1)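 Plants were grown in sterilized diluvial soil in a greenhouse at 25-30° C for 14 days, then sprayed on stems and leaves with water-diluted emulsion formulation at set rates in g/ha. Weed control and crop injury were scored 3 weeks after treatment on a 0-5 herbicidal-ratio scale, from 0 (≤5%) to 5 (≥90%).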
# [1] = tested on: directly sowed Oryza sativa; experiment: as above; details: foliage application, 320 g/ha
# Method in brief: as §1
# Brassica campestris L. = experiment: as above; details: foliage application, 320 g/ha
# Method in brief: as §1
# Triticum aestivum = experiment: as above; details: foliage application, 320 g/ha
# Method in brief: as §1
# Zea mays = experiment: as above; details: foliage application, 320 g/ha
# Method in brief: as §1
# [2] = tested on: Beta vulgaris ssp. vulgaris; experiment: as above; details: foliage application, 320 g/ha
# Method in brief: as §1
# [3] = tested on: Echinochloa oryzacola Vasing.; experiment: Test Example 1: herbicidal activity, application before weed generation in submerged conditions; details: Application herbicide amount 320 g/ha; Seventeenth Table
# Method in brief: (§2)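 Pre-emergence application to water surface of submerged pots (4 cm depth, alluvial soil) on sowing day, with 2.5-leaf rice transplanted; emulsion diluted to g/ha rates. Grown in greenhouse at 25–30 °C; 0–5 herbicidal/crop-effect score after three weeks.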
# Monochoria vaginalis = experiment: as above; details: Application herbicide amount 320 g/ha; Seventeenth Table
# Method in brief: as §2
# Scirpus juncoides = experiment: as above; details: Application herbicide amount 320 g/ha; Seventeenth Table
# Method in brief: as §2
SMILES,c (Glycine max) effect on crop grade (Glycine max),d (directly sowed Oryza sativa) effect on crop grade [1],g (Brassica campestris L.) effect on crop grade (Brassica campestris L.),e (Triticum aestivum) effect on crop grade (Triticum aestivum),b (Zea mays) effect on crop grade (Zea mays),f (Beta vulgaris ssp. vulgaris) effect on crop grade [2],A: Echinochloa oryzicola Vasing. (herbicidal effect grade) [3],C: Monochoria vaginalis (herbicidal effect grade) (Monochoria vaginalis),B: Scirpus juncoides (herbicidal effect grade) (Scirpus juncoides)
COc1ccccc1-c1nnc2c(C(=O)Nc3nnnn3C)ccc(C(F)(F)F)n12 [2-045],3 (Herbicidal ratio of 40% or more and less than 70%),4 (Herbicidal ratio of 70% or more and less than 90%),5 (Herbicidal ratio of 90% or more (almost completely withered)),1 (Herbicidal ratio of 5% or more and less than 20%),4 (Herbicidal ratio of 70% or more and less than 90%),5 (Herbicidal ratio of 90% or more (almost completely withered)),5 (Herbicidal ratio of 90% or more (almost completely withered)),5 (Herbicidal ratio of 90% or more (almost completely withered)),5 (Herbicidal ratio of 90% or more (almost completely withered))
COC(=O)Cn1nnnc1NC(=O)c1ccc(C(F)(F)F)n2c(C(C)C)nnc12 [2-046],0 (Herbicidal ratio of 5% or less (almost no effect)),0 (Herbicidal ratio of 5% or less (almost no effect)),0 (Herbicidal ratio of 5% or less (almost no effect)),0 (Herbicidal ratio of 5% or less (almost no effect)),0 (Herbicidal ratio of 5% or less (almost no effect)),2 (Herbicidal ratio of 20% or more and less than 40%),4 (Herbicidal ratio of 70% or more and less than 90%),0 (Herbicidal ratio of 5% or less (almost no effect)),0 (Herbicidal ratio of 5% or less (almost no effect))
CC(C)c1nnc2c(C(=O)Nc3nnnn3C)ccc(C(F)F)n12 [2-047],0 (Herbicidal ratio of 5% or less (almost no effect)),3 (Herbicidal ratio of 40% or more and less than 70%),3 (Herbicidal ratio of 40% or more and less than 70%),3 (Herbicidal ratio of 40% or more and less than 70%),3 (Herbicidal ratio of 40% or more and less than 70%),5 (Herbicidal ratio of 90% or more (almost completely withered)),5 (Herbicidal ratio of 90% or more (almost completely withered)),5 (Herbicidal ratio of 90% or more (almost completely withered)),4 (Herbicidal ratio of 70% or more and less than 90%)
CSCCn1nnnc1NC(=O)c1ccc(C(F)(F)F)n2c(C(C)C)nnc12 [2-048],4 (Herbicidal ratio of 70% or more and less than 90%),5 (Herbicidal ratio of 90% or more (almost completely withered)),5 (Herbicidal ratio of 90% or more (almost completely withered)),4 (Herbicidal ratio of 70% or more and less than 90%),4 (Herbicidal ratio of 70% or more and less than 90%),5 (Herbicidal ratio of 90% or more (almost completely withered)),5 (Herbicidal ratio of 90% or more (almost completely withered)),4 (Herbicidal ratio of 70% or more and less than 90%),5 (Herbicidal ratio of 90% or more (almost completely withered))
CC(C)c1nnc2c(C(=O)Nc3nnnn3C)ccc(C(F)(F)C(F)(F)F)n12 [2-049],1 (Herbicidal ratio of 5% or more and less than 20%),4 (Herbicidal ratio of 70% or more and less than 90%),3 (Herbicidal ratio of 40% or more and less than 70%),0 (Herbicidal ratio of 5% or less (almost no effect)),2 (Herbicidal ratio of 20% or more and less than 40%),4 (Herbicidal ratio of 70% or more and less than 90%),5 (Herbicidal ratio of 90% or more (almost completely withered)),4 (Herbicidal ratio of 70% or more and less than 90%),5 (Herbicidal ratio of 90% or more (almost completely withered))
CN(C)c1nnc2c(C(=O)Nc3nnnn3C)ccc(C(F)(F)F)n12 [2-051],2 (Herbicidal ratio of 20% or more and less than 40%),4 (Herbicidal ratio of 70% or more and less than 90%),4 (Herbicidal ratio of 70% or more and less than 90%),4 (Herbicidal ratio of 70% or more and less than 90%),4 (Herbicidal ratio of 70% or more and less than 90%),5 (Herbicidal ratio of 90% or more (almost completely withered)),5 (Herbicidal ratio of 90% or more (almost completely withered)),5 (Herbicidal ratio of 90% or more (almost completely withered)),5 (Herbicidal ratio of 90% or more (almost completely withered))
CSC(C)c1nnc2c(C(=O)Nc3nnnn3C)ccc(C(F)(F)F)n12 (stereo not drawn) [2-052],4 (Herbicidal ratio of 70% or more and less than 90%),5 (Herbicidal ratio of 90% or more (almost completely withered)),5 (Herbicidal ratio of 90% or more (almost completely withered)),5 (Herbicidal ratio of 90% or more (almost completely withered)),5 (Herbicidal ratio of 90% or more (almost completely withered)),5 (Herbicidal ratio of 90% or more (almost completely withered)),5 (Herbicidal ratio of 90% or more (almost completely withered)),5 (Herbicidal ratio of 90% or more (almost completely withered)),5 (Herbicidal ratio of 90% or more (almost completely withered))
CC(c1nnc2c(C(=O)Nc3nnnn3C)ccc(C(F)(F)F)n12)[S+](C)[O-] (stereo not drawn) [2-053],4 (Herbicidal ratio of 70% or more and less than 90%),5 (Herbicidal ratio of 90% or more (almost completely withered)),5 (Herbicidal ratio of 90% or more (almost completely withered)),5 (Herbicidal ratio of 90% or more (almost completely withered)),5 (Herbicidal ratio of 90% or more (almost completely withered)),5 (Herbicidal ratio of 90% or more (almost completely withered)),5 (Herbicidal ratio of 90% or more (almost completely withered)),4 (Herbicidal ratio of 70% or more and less than 90%),5 (Herbicidal ratio of 90% or more (almost completely withered))
CC(c1nnc2c(C(=O)Nc3nnnn3C)ccc(C(F)(F)F)n12)S(C)(=O)=O (stereo not drawn) [2-054],5 (Herbicidal ratio of 90% or more (almost completely withered)),5 (Herbicidal ratio of 90% or more (almost completely withered)),5 (Herbicidal ratio of 90% or more (almost completely withered)),5 (Herbicidal ratio of 90% or more (almost completely withered)),5 (Herbicidal ratio of 90% or more (almost completely withered)),5 (Herbicidal ratio of 90% or more (almost completely withered)),5 (Herbicidal ratio of 90% or more (almost completely withered)),5 (Herbicidal ratio of 90% or more (almost completely withered)),5 (Herbicidal ratio of 90% or more (almost completely withered))
Cn1nnnc1NC(=O)c1ccc(C(F)(F)F)n2c(Nc3ccccc3)nnc12 [2-056],1 (Herbicidal ratio of 5% or more and less than 20%),3 (Herbicidal ratio of 40% or more and less than 70%),3 (Herbicidal ratio of 40% or more and less than 70%),1 (Herbicidal ratio of 5% or more and less than 20%),0 (Herbicidal ratio of 5% or less (almost no effect)),5 (Herbicidal ratio of 90% or more (almost completely withered)),4 (Herbicidal ratio of 70% or more and less than 90%),3 (Herbicidal ratio of 40% or more and less than 70%),4 (Herbicidal ratio of 70% or more and less than 90%)
